The subject of this experiment is AEP. The experiment can be described thus: Oxygen-glucose deprivation (OGD) in primary neurons, AEP activity. It counts as cell-based. The note with it: 0.1 μM or 1.0 μM compound. How it is done:
A. AEP activity, measured in primary neuronal cultures with 5 μM Cbz-Ala-Ala-Asn-AMC (x-axis denotes neurons were treated with 0.1 μM or 1.0 μM specified compound). B. Caspase activity, measured in primary neuronal cultures with 5 μM Ac-Asp-Glu-Val-Asp-AMC. C. Cathepsin activity, measured in primary neuronal cultures with 5 μM D-Val-Leu-Lys-AMC. D. Inhibition of APP cleavage. Lysates of primary cortical neurons pre-incubated with compounds for 30 min, underwent OGD for 4 hrs, were reperfused for 18 hrs (normoxia neurons remained at normoxic conditions). E. APP can be cleaved in a dose-dependent manner. Lysates of primary cortical neurons pre-incubated with compounds for 30 min, underwent OGD for 4 hrs, were reperfused for 18 hrs (normoxia neurons remained at normoxic conditions).
Depriving cells of oxygen and glucose is a cellular model that is employed to trigger acidosis in cultured cells. The efficacy of the compounds in a cellular model of oxygen-glucose deprivation (OGD) was determined in an effort to mimic the effects of stroke in primary cultured neurons. As a result of depriving neurons of oxygen and glucose-containing medium, AEP activity was doubled (FIG. 7A, ‘DMSO-Norm’ compared to ‘DMSO-OGD’), while Caspase-3 and Cathepsin activities remained relatively unchanged. […]

`Nc1ccc(N2CCOCC2)c2nonc12` [Compound 11]: the “AEP activity in OGD-treated neurons” value is “marked dose-dependent decrease”.
